Reference: patent publication US6548540B2, “Method of treating cancer using dithiocarbamate derivatives” (Charlotte-Mecklenburg Hospital Authority, priority 1998, dated 2003)

Key:
cyclin A = experiment: Immunoblot for cyclin A in M1619 cells; format: cell-based, human; conditions: 24 hours
Procedure: Cells were lysed and proteins were isolated and quantitated by immunoassay as previously detailed using 2 μg/ml of primary rabbit polyclonal antibodies against human bcl-2, p53, p21^WAF1/CiP1, cyclin A and cyclin B1, and peroxidase-labeled donkey polyclonal anti-rabbit IgG. Cells were placed on ice, washed twice with cold DPBS, scraped into 0.5 ml boiling buffer (10% [vol/vol] glycerol and 2% [wt/vol] sodium dodecyl sulfate [SDS] in 83 mM Tris, pH 6.8) and sheared by four passages through a pipette. Aliquots were removed for protein determination, using the BCA protein assay (Pierce). After 10% β-mercaptoethanol and 0.05% bromophenol blue were added, lysates were boiled for 5 min and stored at -80° C. until immunoblotting was performed. Proteins in defrosted samples were separated by SDS-polyacrylamide gel electrophoresis on 12% polyacrylamide gels (15 μg protein/lane) and electrotransferred to 0.45 μm Hybond ECL nitrocellulose membranes (Amersham Life Sciences) using the wet transblot method in transfer buffer (0.025 M Tris, 0.192 M glycine, 2.6 mM SDS, and 20%[vol/vol] methanol; pH 8.8) at 100 volts for 1 hour. Blots were blocked overnight at 4° C. with blocking buffer (PBS with 0.1% Tween 20) containing 5% fat-free milk powder (Carnation, Glendale, Calif.). After rinsing 5 times for 5 minutes each in PBS containing 0.1% Tween 20, blots were incubated for 1 hour at room temperature with 2.0 μg/ml of primary antibody. After rinsing again as above, blots were incubated for 1 hr at room temperature with horseradish peroxidase (HRP)-conjugated secondary antibody diluted 1:5,000 in blocking buffer. Immunoblots were rinsed again as above and detected via an enhanced chemiluminescence method (ECL Western blotting detection system, Amersham Life Science, Buckinghamshire, England). Autoradiographic film (X-OMAT AR, Eastman Kodak, Rochester, N.Y.) was exposed to immunoblots for 10, 30, or 60 seconds to obtain satisfactory images. Since disulfiram and copper disrupt transcription factor DNA binding to CRE, their effect on expression of cyclin A was studied. […]

NF-κB = experiment: EMSA of treated cells, NF-κB DNA binding; format: cell-based, human; conditions: disulfiram plus copper; 12 hours; data not shown
Procedure: Nuclear protein was isolated and DNA binding reactions were performed as previously described in detail (See, […], et al., “Dehydroepiandrosterone and analogs inhibit DNA binding of AP-1 and airway smooth muscle proliferation,” J. Pharmacol. Exper. Ther. 285:[…] (1998); T. Kennedy, et al., “Copper-dependent inflammation and nuclear factor-κB activation by particulate air pollution,” Am. J. Respir. Cell Mol. Biol. 19:366-378 (1998)). Monolayers were washed twice in cold DPBS and equilibrated 10 minutes on ice with 0.7 ml cold cytoplasmic extraction buffer, CEB (10 mM Tris, pH 7.9, 60 mM KCl, 1 mM EDTA, 1 mM DTT) with protease inhibitors, PI (1 mM Pefabloc, 50 μg/ml antipain, 1 μg/ml leupeptin, 1 μg/ml pepstatin, 40 μg/ml bestatin, 3 μg/ml E-64 and 100 μg/ml chymostatin). The detergent Nonidet P-40 (NP-40) was added to a final concentration of 0.1% and cells were dislodged with a cell scraper. Nuclei were pelleted by centrifugation and washed with CEB/PI. […] Competition experiments were performed with 10×unlabeled wild-type oligonucleotide sequences for CRE or […] and 3'-[NT]5'), added before labeled probe. Supershift experiments were performed by incubating the binding reaction with 1 μg of supershifting antibody prior to electrophoresis. […] Gels were dried and analyzed by autoradiography at -80° C. using an image intensifier screen. […]

## CCN(CC)C(=S)SSC(=S)N(CC)CC [Disulfiram, tetraethylthiuram disulfide]
Cyclin A; disulfiram 5 μM alone
  cyclin A expression: little effect
Cyclin A; disulfiram 5 μM plus CuSO4 1.6 μM
  reduction of cyclin A expression: over two-thirds
NF-κB
  DNA binding of NF-κB: inhibited
